Assay results from US20070010488A1, “Compounds for modulating cell proliferation” (priority 2005, published 2007).
Values joined by “and” are separate entries in the source; they are usually repeats but may differ in a detail not shown here. Equal entries are not always repeated. Where two headings read alike, the source gives them in different places.

Assays:
[1] = test system: RS4-11 (B-ALL); assay: Alamar Blue cell viability assay, RS4-11; assay type: cell-based; details: Homo sapiens, 72 hours
Protocol: (§1) Each test compound was weighed between the ranges of 0.5-2.0 mg, and then dissolved in a specified volume of DMSO to produce a solution of 10 mM. Appropriate dilutions in cell culture medium were made to produce a stock solution of 400 μM. All subsequent dilutions were also done in cell culture medium. This stock solution was then used for further dilutions to produce the initial concentration to be added to the 50 μL and 450 μL of cells in the 96-well and the 48-well microtiter plates, respectively:
(§2) The initial concentration for cells that were cultured in 50 μL 96-well plates was 40 μM. […]
(§3) 50 μL of cell culture medium containing the test compound was added to each well twenty four hours after seeding. […] Proliferation of cells was assessed using the fluorimetric Alamar Blue (CellTiter Blue) test and cell counting.
(§4) For the Alamar Blue assay, untreated cells were used as growth controls. Data were assessed in duplicates. […] The Alamar Blue cell viability assay was used to determine the IC50 concentrations for the inhibition of cell proliferation or induction of cell death by the ets articles as well as the reference Compound A. Primary data from all assays were plotted for each test compound, cell system and test concentration, with the y-axis representing the readout for cell proliferation/viability and the x-axis representing the compound concentration (μM). […]

[2] = test system: SUP-B15 (B-ALL); assay: Alamar Blue cell viability assay, SUP-B15; assay type: cell-based; details: Homo sapiens, 72 hours
Protocol: as §1, §2, §3, §4

[3] = test system: MOLM-13 (AML); assay: Alamar Blue cell viability assay, MOLM-13; assay type: cell-based; details: Homo sapiens, 72 hours
Protocol: as §1, §2, §3, §4

[4] = Mouse pharmacokinetics, intravenous and oral, plasma LC/MSMS; assay type: in vivo; details: Mice CD1; for bioavailability: read-out: Bioavailability factor
Protocol: Compound A (Stored at ca. +5° C.)
Formulation preparation for oral routes: […]
Animal Phase: • Species: Mice CD1 (supplied from Harlan, France) • Routes tested: Intravenous (Mice Nos.39 to 52 incl.), oral low dose (Mice Nos.53 to 63 incl.) and oral high dose (Mice Nos.65 to 76 incl.) • Animals were not fasted.
Times of blood sampling performed from the abdominal aorta (2 animals per time point): • Intravenous route (IV): 5 min, 15 min, 30 min, 1 h, 2 h, 6 h and 24 h • Oral routes (PO): 15 min, 30 min, 1 h, 3 h, 6 h and 24 h
Plasma was harvested by centrifugation of blood at 3500 g for 10 minutes at ca. +5° C.
Plasma was stored at ca. −20° C. until analysis.
Analytical method: LC/MSMS after extraction
Calibration undertaken in plasma (5 levels in mice, twice injected, ranging from 10 to 1000 ng.mL^−1)
HPLC Conditions: • Colonne: Zorbax C18 50×2.1 mm, 3.5 μm • Filter: A102X 5 μm • Injected volume: 20 μL • Mobile phase flow: 0.1 mL.min^−1 • Autosampler temperature: ca. +5° C. • Oven temperature: ca. +30° C. • Run time: 10 min • Mobile phase: deionized water with 0.1% formic acid/methanol with 0.1% formic acid; 30:70 v/v (isocratic) • Retention time: ca. 2.1 min
Extraction Method for Plasma Sample: • 50 μL of plasma combined with 100 μL of methanol • Vortexed a few seconds • Centrifuged 3 min at 13 000 rpm at ca. +5° C. • Diluted 50 μL of the supernatant with 50 μL of deionized water in a HPLC vial for injection • Vortexed a few seconds • Injected into the HPLC/MSMS system Extraction Method for Plasma Calibration Sample: • 50 μL of plasma sample combined with 100 μL of spiking solution • Vortexed a few seconds • Centrifuged 3 min at 13 000 rpm at ca. +5° C. • Diluted 50 μL of the supernatant with 50μL of deionized water in a HPLC vial for injection • Vortexed a few seconds • Injected into the HPLC/MSMS system Results: Animal and Analytical Phase Results: […]

[5] = mouse, plasma, intravenous 3.83 mg/kg
[6] = mouse, plasma, oral high dose 50.2 mg/kg
[7] = mouse, plasma, oral low dose 10.0 mg/kg

SMILES: CCN1C/C(=C\c2cc(OC)c(OC)c(OC)c2)C(=O)/C(=C/c2cc(OC)c(OC)c(OC)c2)C1 [Compound A]
- IC50 [1]: 450 nM
- IC50 [2]: 1030 nM
- IC50 [3]: 1900 nM
- concentration at 0.083 h ([4]; CD1, mouse, plasma, iv, 3.83 mg/kg, intravenous 3.83 mg/kg, 0.083 h, individual mice, read-out: Plasma levels): 200 ng/mL
- concentration at 0.25 h ([4]; CD1, mouse, plasma, iv, 3.83 mg/kg, intravenous 3.83 mg/kg, 0.25 h, individual mice, read-out: Plasma levels): 64.4 ng/mL
- concentration at 0.5 h ([4]; CD1, mouse, plasma, iv, 3.83 mg/kg, intravenous 3.83 mg/kg, 0.5 h, individual mice, read-out: Plasma levels): 57.5 ng/mL
- concentration at 2 h ([4]; CD1, mouse, plasma, iv, 3.83 mg/kg, intravenous 3.83 mg/kg, 2 h, individual mice, read-out: Plasma levels): 17.9 ng/mL
- concentration at 0.5 h ([4]; CD1, mouse, plasma, po, 10 mg/kg, oral low dose 10.0 mg/kg, 0.5 h, individual mice, read-out: Plasma levels): 71.7 ng/mL
- concentration at 1 h ([4]; CD1, mouse, plasma, po, 10 mg/kg, oral low dose 10.0 mg/kg, 1 h, individual mice, read-out: Plasma levels): 83.5 ng/mL
- concentration at 3 h ([4]; CD1, mouse, plasma, po, 10 mg/kg, oral low dose 10.0 mg/kg, 3 h, individual mice, read-out: Plasma levels): 41.7 ng/mL
- concentration at 24 h ([4]; CD1, mouse, plasma, po, 10 mg/kg, oral low dose 10.0 mg/kg, 24 h, individual mice, LOQ 10 ng · mL^−1, ND: Not Detectable, read-out: Plasma levels): 5.8 ng/mL
- concentration at 0.25 h ([4]; CD1, mouse, plasma, po, 50.2 mg/kg, oral high dose 50.2 mg/kg, 0.25 h, individual mice, read-out: Plasma levels): 819 ng/mL
- concentration at 0.5 h ([4]; CD1, mouse, plasma, po, 50.2 mg/kg, oral high dose 50.2 mg/kg, 0.5 h, individual mice, read-out: Plasma levels): 434 ng/mL
- concentration at 1 h ([4]; CD1, mouse, plasma, po, 50.2 mg/kg, oral high dose 50.2 mg/kg, 1 h, individual mice, read-out: Plasma levels): 175 ng/mL
- concentration at 3 h ([4]; CD1, mouse, plasma, po, 50.2 mg/kg, oral high dose 50.2 mg/kg, 3 h, individual mice, read-out: Plasma levels): 137 ng/mL
- % AUCextra ([4]; intravenous 3.83 mg/kg): 3.2%
- Plasma levels ([4]; intravenous 3.83 mg/kg, 0.083 h, individual mice, 3.83 mg/kg): 333.91 ng/mL
- Plasma levels ([4]; intravenous 3.83 mg/kg, 0.25 h, individual mice, 3.83 mg/kg): 85.28 ng/mL
- Plasma levels ([4]; intravenous 3.83 mg/kg, 0.5 h, individual mice, 3.83 mg/kg): 69.56 ng/mL
- Plasma levels ([4]; intravenous 3.83 mg/kg, 1 h, individual mice, 3.83 mg/kg): 80.73 ng/mL and 39.25 ng/mL
- Plasma levels ([4]; intravenous 3.83 mg/kg, 2 h, individual mice, 3.83 mg/kg): 12.9 ng/mL
- Plasma levels ([4]; intravenous 3.83 mg/kg, 6 h, individual mice, LOQ 10 ng · mL^−1, 3.83 mg/kg): 14.94 ng/mL and 7.29 ng/mL
- Plasma levels ([4]; intravenous 3.83 mg/kg, 24 h, individual mice, LOQ 10 ng · mL^−1, 3.83 mg/kg): 1.68 ng/mL and 0.36 ng/mL
- % AUCextra ([4]; oral high dose 50.2 mg/kg): 0.57%
- Plasma levels ([4]; oral high dose 50.2 mg/kg, 0.25 h, individual mice, 50.2 mg/kg): 444.58 ng/mL
- Plasma levels ([4]; oral high dose 50.2 mg/kg, 0.5 h, individual mice, 50.2 mg/kg): 393.99 ng/mL
- Plasma levels ([4]; oral high dose 50.2 mg/kg, 1 h, individual mice, 50.2 mg/kg): 213.68 ng/mL
- Plasma levels ([4]; oral high dose 50.2 mg/kg, 3 h, individual mice, 50.2 mg/kg): 160.65 ng/mL
- Plasma levels ([4]; oral high dose 50.2 mg/kg, 6 h, individual mice, 50.2 mg/kg): 23.07 ng/mL and 137.34 ng/mL
- Plasma levels ([4]; oral high dose 50.2 mg/kg, 24 h, individual mice, LOQ 10 ng · mL^−1, 50.2 mg/kg): 2.36 ng/mL and 1.04 ng/mL
- % AUCextra ([4]; oral low dose 10.0 mg/kg): 4.1%
- Plasma levels ([4]; oral low dose 10.0 mg/kg, 0.25 h, individual mice, 10 mg/kg): 67.54 ng/mL and 178.37 ng/mL
- Plasma levels ([4]; oral low dose 10.0 mg/kg, 0.5 h, individual mice, 10 mg/kg): 83.39 ng/mL
- Plasma levels ([4]; oral low dose 10.0 mg/kg, 1 h, individual mice, 10 mg/kg): 70.35 ng/mL
- Plasma levels ([4]; oral low dose 10.0 mg/kg, 3 h, individual mice, 10 mg/kg): 40.47 ng/mL
- Plasma levels ([4]; oral low dose 10.0 mg/kg, 6 h, individual mice, LOQ 10 ng · mL^−1, 10 mg/kg): 2.67 ng/mL and 6.30 ng/mL
- AUC [4, 5]: 254 ng·h/mL
- AUC(0-t) [4, 5]: 246 ng·h/mL
- Vd [4, 5]: 119 L/kg
- clearance ([4]; mouse, plasma, intravenous 3.83 mg/kg, read-out: Total Clearance (converted)): 251 mL/min/kg
- half-life ([4]; mouse, plasma, intravenous 3.83 mg/kg, read-out: T½ (converted)): 330 min
- AUC [4, 6]: 1400 ng·h/mL
- AUC(0-t) [4, 6]: 1390 ng·h/mL
- Cmax [4, 6]: 632 ng/mL
- Tmax [4, 6]: 15 min
- bioavailability ([4]; mouse, plasma, oral high dose 50.2 mg/kg vs intravenous): 43.4%
- AUC [4, 7]: 321 ng·h/mL
- AUC(0-t) [4, 7]: 308 ng·h/mL
- Cmax [4, 7]: 123 ng/mL
- Tmax [4, 7]: 15 min
- bioavailability ([4]; mouse, plasma, oral low dose 10.0 mg/kg vs intravenous): 48%
